Assay results from ChEMBL document CHEMBL3507680, “University of Dundee, Gates Library screen for HepG2 cell viability”.

Assay: Human HepG2 cell viability assay in 384 well format
Assay type: toxicity, cell-based
Parameters: dose 125 nL, time 70.5 hour; concentration not given beside the values
Settings: HepG2 cells, read-out: Inhibition

| Structure (SMILES) | cytotoxicity at 70.5 h |
| --- | --- |
| CN(C)CCN1CCc2ncc(CN(C)Cc3ccco3)n2CC1 | 30% |
| Cn1cc(-c2nc(C3CCN(S(C)(=O)=O)CC3)cc3c2ncn3C)cn1 | 23.5% |
| CCN1CC2(CC1=O)CN(C(C)=O)CCN(S(=O)(=O)CC)C2 (centres undefined) | -2.5% |
| Cn1cc(-c2nc(C3CCN(CC4CC4)CC3)cc3c2ncn3C)cn1 | -1.1% |
| CN(C)c1ccc2c(c1)CN(C(=O)c1ccnnc1)C2c1cnco1 (centres undefined) | -13.8% |
| c1cc(CN2CCc3c(CN4CCCC4)n[nH]c3C2)ccn1 | 23.4% |
| C[C@H]1C[C@@H]2CCN(Cc3nccs3)C[C@H]2O1 | -9.2% |
| Cc1nnc(C[C@@H]2COC[C@H]3CN(C(=O)c4ccco4)C[C@@H]23)o1 | -9.01% |
| Cc1nnc(C[C@@H]2COC[C@H]3CN(C(=O)C4=CCCC4)C[C@@H]23)o1 | -13.7% |
| Cc1cc(C(=O)N2CCCC3(COCCN(c4ccccc4)C3)C2)[nH]n1 (centres undefined) | -10.7% |
| CCN1CC2(CC1=O)CN(C(C)=O)CCN(S(C)(=O)=O)C2 (centres undefined) | -13.4% |
| CC(C)Nc1nc2c(c(NC3CC3)n1)CN(C(=O)c1ccncc1)CC2 | 32.7% |
| C[C@H]1C[C@H]2CN(C(=O)c3cccc4c3OCCO4)CC[C@H]2O1 | 32.2% |
| O=C(COC1CCCC1)N1CC[C@H]2OCC[C@@]2(COCC2CC2)C1 | -3.35% |
| CCOCC1CN(C(=O)[C@H]2CCCO2)Cc2nnn(CC3CC3)c21 (some centres undefined) | -1.02% |
| CC(C)N1CCC(c2ccnc3c(C(=O)N4CCCC4)ncn23)CC1 | -3.82% |
| CCN1C(=O)CC(c2ccccc2)C12CCN(c1ncc(C)cn1)CC2 (centres undefined) | -3.7% |
| CCN(C)C(=O)c1ncn2c(C3CCN(S(C)(=O)=O)CC3)ccnc12 | -5.47% |
| CCN1C(=O)CC(c2cccnc2)C12CCN(c1ncc(F)cn1)CC2 (centres undefined) | 1.09% |
| O=C(c1ncn2c(C3CCN(CC4CC4)CC3)ccnc12)N1CCCC1 | 0.745% |
| CC(=O)NCC(=O)N1CCc2nc(C)nc(C)c2CC1 | 5.59% |
| CCNC(=O)N1CCC2(CC1)CCn1c(-c3ccccc3)cnc12 | -3.37% |
| Cc1nnc([C@H]2C[C@H]3OCC[C@H]3N(S(=O)(=O)N(C)C)C2)o1 | -3.65% |
| O=C(Nc1cnccn1)[C@@H]1COC[C@H]2CN(c3ncc(F)cn3)C[C@H]21 | -4.35% |
| CC1CCN(c2ccc3c(-c4ncc(C(=O)O)s4)noc3c2)CC1 | -5.23% |
| CCOC1CC2(CCN(c3cnccn3)CC2)c2ccccc21 (centres undefined) | -4.37% |

| Structure (SMILES) | cytotoxicity at 70.5 h |
| --- | --- |
| Cn1cnc2c1C(C(=O)N1CCOCC1)N(C(=O)c1ccccc1)CC2 (centres undefined) | -4.08% |
| Cc1nc(CN2CCc3nc(N4CCCC4)nc(NC(C)C)c3C2)cs1 | -3.99% |
| COC[C@H]1CCC[C@]12CN(S(=O)(=O)c1cccs1)CCO2 | -4.35% |
| Cc1ccsc1C(=O)N1CCC2(CC(C(=O)N(C)C(C)C)=NO2)C1 (centres undefined) | -2.65% |
| Cc1cccc(C(=O)N2CCC3(CC(C(=O)N(C)C(C)C)=NO3)C2)c1 (centres undefined) | -3.14% |
| COCC(=O)NCc1cc(=O)n2c(n1)CN(Cc1ccoc1)CCC2 | 1.73% |
| Cc1ccc(N2CCCC3(COCCN(c4cnccn4)C3)C2)nn1 (centres undefined) | -0.306% |
| Cc1cc(C(=O)N2CCc3c(CN(C)C(C)C)n[nH]c3C2)[nH]n1 | 0.919% |
| COCC(=O)N1CCCn2c(CN3CCCC3)nnc2C1 | -4.43% |
| CCNC(=O)N1CCC2(C1)c1ccccc1S(=O)(=O)N2CCOC (centres undefined) | 5.14% |
| CCCS(=O)(=O)N1C[C@@H](c2nc(C)no2)C[C@H]2OCC[C@H]21 | -0.391% |
| CC(=O)N1CC[C@@H]2O[C@@H](COCC(=O)N3CCCC3)CC[C@@H]21 | 23.9% |
| COc1cc(N2C[C@H](C(=O)N3CCCC3)[C@@H]3CCO[C@@H]3C2)ncn1 | -0.329% |
| CCN1C(=O)CC[C@@H]2[C@H]1CCN2S(=O)(=O)Cc1ccc(C)cc1 | -0.603% |
| CS(=O)(=O)N1CCOCC2(CCN(C(=O)c3cnccn3)CC2)C1 | 17.6% |
| COCc1nn(C(C)C)c2c1CCN(Cc1ccsc1)C2 | -5.82% |
| CN(C)C(=O)c1nn(C)c2c1CN(Cc1ccoc1)C2 | -7.04% |
| CCN1C(=O)C[C@@H]2[C@@H]1CCN2S(=O)(=O)Cc1ccc(C)cc1 | 1.97% |
| Cc1nc(CO[C@@H]2CN(Cc3ccccn3)[C@@H]3COC[C@@H]32)cs1 | -7.36% |
| Cc1nc(CO[C@@H]2CN(Cc3ccc(F)cc3)[C@@H]3COC[C@@H]32)cs1 | -7.17% |
| Cc1ccc(CN2Cc3c(cnn3C)C(COCC3CC3)C2)s1 (centres undefined) | 35.1% |
| CN(C)S(=O)(=O)N1CCC2(COCc3cnc(NCC4CC4)nc32)C1 (centres undefined) | 29.2% |
| COCC(=O)N1CCC2(CCN(c3cnn(C)c3)C2=O)C1 (centres undefined) | 34.5% |
| CCCS(=O)(=O)N1CCC2(CCN(Cc3cccc(F)c3)C2=O)C1 (centres undefined) | 36.3% |
| N#Cc1ccc(OC[C@]23COC[C@H]2CN(Cc2ccccn2)C3)nc1 | 0.477% |
| Cc1cnc(C(=O)N2CCCC3(CCN(c4cnn(C)c4)C3=O)C2)cn1 (centres undefined) | -3.83% |

| Structure (SMILES) | cytotoxicity at 70.5 h |
| --- | --- |
| Cn1cc(N2CCC3(CCCN(C(=O)c4ccnn4C)C3)C2=O)cn1 (centres undefined) | -4.7% |
| c1cc(-c2ccc3c(c2)C2(CC3)CCN(c3nncs3)CC2)ccn1 | 1.28% |
| O=S(=O)(C1CC1)N1CCC2(COCc3cnc(NCC4CC4)nc32)C1 (centres undefined) | -6.1% |
| Cc1nc(COC[C@H]2CC[C@H]3NCC[C@H]3O2)cs1 | -6.2% |
| CC1CCCCN1C(=O)c1nc2c(n1C(C)C)CCN(C)C2 (centres undefined) | -14% |
| CN(Cc1ccco1)Cc1cnc2n1CCN(S(C)(=O)=O)CC2 | 26.4% |
| CCc1cnc(N2CC[C@H]3[C@@H]2CCC(=O)N3CC2CCOCC2)nc1 | 20.9% |
| COCCN1CCC2(CCCN(C(=O)c3cncn3C)C2)CC1 | -3.6% |
| CN1CCC2(CCN(c3ncc(F)cn3)CC2)C1=O | -1.11% |
| Cc1cc(C(=O)N2CCC3(CC2)COCCN(c2cccnc2)C3)[nH]n1 | -3.67% |
| CN(C)C(=O)COC[C@@]12CCC[C@@H]1CN(C1CCC1)C2 | -10.9% |
| C[C@@H]1C[C@H]2CN(Cc3nccs3)C[C@H]2O1 | -10.9% |
| CN(C)C(=O)COC[C@@]12CCC[C@@H]1CNC2 | -13.5% |
| CS(=O)(=O)N1CCOCC2(CCN(Cc3ccc[nH]3)CC2)C1 | -5.4% |
| Cc1nc(CN2CCC3(CC2)CC(=O)N(C)c2ccccc23)cs1 | -7.28% |
| COCCN1CCO[C@H]2CCN(C(=O)c3cccs3)CC[C@@H]21 | 5.33% |
| Cc1noc([C@H]2C[C@H]3OCC[C@H]3N(C3CCC3)C2)n1 | 24.7% |
| CN(C)c1nccc(N2CCO[C@H]3CN(Cc4nccn4C)C[C@H]32)n1 | -0.595% |
| Cc1nc(CN2C(=O)COC3(CCN(CC4CC4)CC3)C2C)cs1 (centres undefined) | 2.37% |
| Cc1cc(C(=O)N2CCC3(CC2)CC(c2cccnc2)C(=O)N3)no1 (centres undefined) | 1.95% |
| CCN(CC)Cc1cn2c(n1)CN(C(=O)Cc1ccsc1)CC2 | -5.15% |
| Cc1ccc(N2CCCC3(COCCN(c4ncccn4)C3)C2)nn1 (centres undefined) | 4.86% |
| O=C(c1cnc2ccccc2c1)N1CCC2(CCN2c2ncccn2)C1 (centres undefined) | 2.76% |
| Cc1nc(CN2C(=O)COC3(CCN(C)CC3)C2C)cs1 (centres undefined) | 4.23% |
| O=C(c1ccccc1)N1CCC2(CCCN2c2ncccn2)CC1 | 3.93% |
| Cc1cccc(C(=O)N2C[C@@H]3COC[C@@H](CC(=O)N4CCCC4)[C@@H]3C2)n1 | 4.3% |

| Structure (SMILES) | cytotoxicity at 70.5 h |
| --- | --- |
| O=C1COC2(CCN(Cc3nccs3)CC2)CN1c1ccccc1 | 5.28% |
| Cn1cccc1C(=O)N1CC[C@@H]2[C@@H]1CC(=O)N2CCN1CCOCC1 | -4.61% |
| CN(C)C(=O)c1nn(C)c2c1CN(Cc1ccc(F)cc1)C2 | -6.32% |
| CS(=O)(=O)NCc1cnc2n1CCN(Cc1ccoc1)CC2 | -9.11% |
| Cc1csc(CN2CC[C@H]3C[C@H](c4nc(C)no4)O[C@@H]3C2)n1 | -10.4% |
| Cc1nc(CO[C@@H]2CN(Cc3nccs3)[C@@H]3COC[C@@H]32)cs1 | -6.11% |
| O=C1C[C@H]2[C@@H](CCN2C(=O)c2ccoc2)N1CCN1CCOCC1 | -7.58% |
| COCc1nn(C(C)C)c2c1CCN(Cc1ccoc1)C2 | -6.52% |
| CS(=O)(=O)N1CCC2(CCN(C(=O)c3cccnc3)CC2)C1 | -7.54% |
| COCc1nn(C(C)C)c2c1CCN(Cc1nccs1)C2 | 12.2% |
| COCCN1CCC(c2nc3ccc(-c4ccccc4)cn3n2)CC1 | 1.72% |
| CN1CCC(c2nc3ccc(-c4ccccc4)cn3n2)CC1 | -3.45% |
| O=C(N1CCCC1)N1CCC[C@]2(C[C@@H](Oc3ncccc3F)CO2)C1 | -4.8% |
| Cc1ccc(CN2CC[C@@H](NS(C)(=O)=O)[C@@H]2Cc2ccncc2)o1 | -10.7% |
| CN(C)C(=O)[C@H]1CC[C@@H]2[C@@H](CCN2Cc2ccccn2)O1 | 0.127% |
| CN(C)C(=O)[C@@H]1CC[C@@H]2[C@@H](CCN2Cc2ccccn2)O1 | -7.99% |
| Cn1cc(CN2Cc3c(cnn3C)C(COCC3CC3)C2)cn1 (centres undefined) | 26% |
| c1cc(CN2CCc3ncc(CN4CCOCC4)n3CC2)cs1 | 16.8% |
| O=C(c1cscn1)N1CCC2(CN(Cc3ccncc3)C2)C1 | -9.93% |
| Cc1nnc(N2CCCC3(CN(Cc4nccs4)CCO3)C2)o1 (centres undefined) | 34.9% |
| c1cc(-c2ccc3nc(C4CCN(CC5CC5)CC4)nn3c2)ccn1 | 3.64% |
| c1cncc(O[C@H]2CC[C@H]3[C@H]2OCCN3C2CCCC2)c1 | -1.6% |
| O=C(Cc1ccccn1)N1CC[C@]2(C[C@@H](Oc3ncccc3F)CO2)C1 | 2.46% |
| c1coc(CN2CCC3(CC2)COCCN(CCN2CCCC2)C3)c1 | -0.522% |
| c1c[nH]c(CN2CCC3(CC2)COCCN(CCN2CCCC2)C3)c1 | -10.3% |
| CCCN1CCc2c(C(=O)N(C)Cc3ccccn3)nn(C)c2C1 | -6.22% |
